Converted amounts (≈) assume the structure as drawn. Read-outs that look alike come from different tables or passages of the source. Starred links: 1 amine or outer side, 2 acyl side, 3 side chain; linkers in the order of their positions; H or OH if unused. Positions of bridges follow the written chain, without caps; N, C: chain ends. Residues, ends and D or L forms follow the SMILES beside them. Groups on a side chain read outwards from the residue. *: point of attachment. C20 diacid = O=C(O)CCCCCCCCCCCCCCCCCCC(=O)*; C18 diacid = O=C(O)CCCCCCCCCCCCCCCCC(=O)*; γGlu = O=C(O)[C@H](CCC(=O)[*:2])N[*:1]; AEEA = NCCOCCOCC(=O)O
Columns and labels:
[1] = biological target: T1, human amylin receptor (amylin 3(a) receptor: human calcitonin receptor + RAMP-3) (Homo sapiens, UniProt O60896+P30988); test: Assay (II)a functional CRE-luciferase assay, human amylin receptor; assay type: cell-based
T1 construct: expressed in transfected cells; host or cells: BHK570
T1 sequence (P30988 25-474): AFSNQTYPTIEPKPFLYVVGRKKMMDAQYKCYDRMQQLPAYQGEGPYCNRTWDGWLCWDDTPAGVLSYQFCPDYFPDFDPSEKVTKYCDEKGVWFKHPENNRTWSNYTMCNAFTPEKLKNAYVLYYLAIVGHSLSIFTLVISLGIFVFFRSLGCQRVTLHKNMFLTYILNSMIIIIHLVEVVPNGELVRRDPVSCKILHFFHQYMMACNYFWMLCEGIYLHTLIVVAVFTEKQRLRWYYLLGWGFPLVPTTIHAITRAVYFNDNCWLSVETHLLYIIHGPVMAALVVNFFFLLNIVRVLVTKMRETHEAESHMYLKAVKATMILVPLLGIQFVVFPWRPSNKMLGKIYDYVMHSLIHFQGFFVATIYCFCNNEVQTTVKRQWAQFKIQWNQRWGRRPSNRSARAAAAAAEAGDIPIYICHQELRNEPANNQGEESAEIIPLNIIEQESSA
T1 sequence (O60896 24-148 partner): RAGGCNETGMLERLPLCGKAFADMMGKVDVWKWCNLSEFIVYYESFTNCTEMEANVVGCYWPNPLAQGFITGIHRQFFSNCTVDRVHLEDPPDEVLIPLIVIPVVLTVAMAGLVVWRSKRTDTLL

[2] = biological target: T2, human calcitonin receptor (Homo sapiens, UniProt P30988); test: Assay (II)a functional CRE-luciferase assay, human calcitonin receptor; assay type: cell-based
T2 construct: expressed in transfected cells; host or cells: BHK570
T2 sequence (P30988 25-474): T1 sequence (P30988 25-474)

[3] = Assay (III) ThT fibrillation assay for physical stability; assay type: physicochemical; conditions: ThT fibrillation assay
In short: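 Freshly prepared formulations, pH-adjusted, with 1 μM ThT; four or eight replicates incubated at 37 °C under 960 rpm orbital shaking. Fluorescence (ex 444/em 485 nm) read every 20 min; […]. Peptide concentration measured by RP-HPLC before and after the run.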

[4] = Assay (IV) determination of solubility; assay type: physicochemical
In short: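 Stock ~500 nmol/ml in water; 1:1 with 100 mM buffer, pH 3.0–8.0 (glycylglycine ≤5.0, bistrispropane ≥6.0); 18 h RT; spin; HPLC quantitation of soluble polypeptide.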

[5] = Table 2, BHK amylin 3(a)-receptor/CRE-luc cells
[6] = Table 11, read-out: CTa receptor human EC50
[7] = bistrispropane buffer, pH 6, pH 6.0, read-out: Solubility pH 6.0
[8] = bistrispropane buffer, pH 6.5, pH 6.5, read-out: Solubility pH 6.5
[9] = bistrispropane buffer, pH 7, pH 7.0, 18 hours at room temperature, Table 3, read-out: Solubility pH 7.0
[10] = bistrispropane buffer, pH 7, pH 7.0, read-out: Solubility pH 7.0
[11] = bistrispropane buffer, pH 7.5, pH 7.5, read-out: Solubility pH 7.5
[12] = bistrispropane buffer, pH 8, pH 8.0, read-out: Solubility pH 8.0
[13] = glycylglycine buffer, pH 3, pH 3.0, read-out: Solubility pH 3.0
[14] = glycylglycine buffer, pH 4, pH 4.0, 18 hours at room temperature, Table 2, read-out: Solubility pH 4.0
[15] = glycylglycine buffer, pH 4, pH 4.0, read-out: Solubility pH 4.0
[16] = glycylglycine buffer, pH 5, pH 5.0, read-out: Solubility pH 5.0
[17] = Table 7, human calcitonin (CTa) receptor

| EC50 [1, 5] | EC50 [2, 6] | ThT pH 4.0 lag time (h) [3] | solubility at 18 h [4, 7] | solubility at 18 h [4, 8] | solubility at 18 h [4, 9] | solubility at 18 h [4, 10] | solubility at 18 h [4, 11] | solubility at 18 h [4, 12] | solubility at 18 h [4, 13] | solubility at 18 h [4, 14] | solubility at 18 h [4, 15] | solubility at 18 h [4, 16] | EC50 ([1]; Table 11) | solubility at 18 h ([4]; pH 8.0, read-out: Solubility pH 8.0) | EC50 [2, 17] | SMILES |
| --- | --- | --- | --- | --- | --- | --- | --- | --- | --- | --- | --- | --- | --- | --- | --- | --- |
| 0.456 nM | 4.3 nM | 3 h | > 200 µM | > 200 µM | > 200 µM | > 200 µM | > 200 µM | > 200 µM | > 200 µM | > 200 µM | > 200 µM | > 200 µM | – | – | – | CC[C@H](C)[C@H](NC(=O)[C@@H]1CCCN1C(=O)CNC(=O)[C@H](Cc1ccccc1)NC(=O)[C@H](CC(N)=O)NC(=O)[C@H](CC(N)=O)NC(=O)[C@H](CO)NC(=O)[C@H](CO)NC(=O)[C@H](Cc1c[nH]cn1)NC(=O)[C@H](CCCCNC(=O)COCCOCCNC(=O)COCCOCCNC(=O)CC[C@H](NC(=O)CCCCCCCCCCCCCCCCC(=O)O)C(=O)O)NC(=O)[C@H](CC(C)C)NC(=O)[C@H](Cc1ccccc1)NC(=O)[C@H](CCC(=O)O)NC(=O)[C@H](C)NC(=O)[C@H](CC(C)C)NC(=O)[C@H](CCCNC(=N)N)NC(=O)[C@H](CCC(N)=O)NC(=O)[C@@H](NC(=O)[C@H](C)NC(=O)[C@@H]1CSSC[C@H](NC(=O)[C@@H](N)CCCCN)C(=O)N[C@@H](CC(N)=O)C(=O)N[C@@H]([C@@H](C)O)C(=O)N[C@@H](C)C(=O)N[C@@H]([C@@H](C)O)C(=O)N1)[C@@H](C)O)C(=O)N[C@@H](CC(C)C)C(=O)N1CCC[C@H]1C(=O)N1CCC[C@H]1C(=O)N[C@H](C(=O)N[C@@H](CC(N)=O)C(=O)N[C@H](C(=O)NCC(=O)N[C@@H](CO)C(=O)N[C@@H](CC(N)=O)C(=O)N[C@H](C(=O)N[C@@H](Cc1ccc(O)cc1)C(N)=O)[C@@H](C)O)C(C)C)[C@@H](C)O [Example 80, N-epsilon17-[2-(2-{2-[2-(2-{2-[(S)-4-Carboxy-4-(17-carboxyheptadecanoylamino)butyrylamino]ethoxy}ethoxy)acetylamino]ethoxy}ethoxy)acetyl]-[Glu14,Lys17]-pramlintide] (H-KCNTATCATQRLAEFLK([AEEA-AEEA-γGlu-C18 diacid])HSSNNFGPILPPTNVGSNTY-NH2; disulfide 2-7) |
| – | 0.193 nM | 2.6 h | 85 µM (≈ 379 µg/mL) | 1 µM (≈ 4.45 µg/mL) | – | 1 µM (≈ 4.45 µg/mL) | 1 µM (≈ 4.45 µg/mL) | – | > 200 µM | – | > 200 µM | > 200 µM | 0.0745 nM | 1 µM (≈ 4.45 µg/mL) | – | CC[C@H](C)[C@H](NC(=O)[C@@H]1CCCN1C(=O)CNC(=O)[C@H](Cc1ccccc1)NC(=O)[C@H](CC(N)=O)NC(=O)[C@H](CC(N)=O)NC(=O)[C@H](CO)NC(=O)[C@H](CO)NC(=O)[C@H](Cc1c[nH]cn1)NC(=O)[C@@H](NC(=O)[C@H](CC(C)C)NC(=O)[C@H](Cc1ccccc1)NC(=O)[C@H](CC(N)=O)NC(=O)[C@H](C)NC(=O)[C@H](CC(C)C)NC(=O)[C@H](CCCNC(=N)N)NC(=O)[C@H](CCC(N)=O)NC(=O)[C@@H](NC(=O)[C@H](C)NC(=O)[C@@H]1CSSC[C@H](NC(=O)[C@H](CCCNC(=N)N)NC(=O)CC[C@H](NC(=O)CCCCCCCCCCCCCCCCCCC(=O)O)C(=O)O)C(=O)N[C@@H](CC(N)=O)C(=O)N[C@@H]([C@@H](C)O)C(=O)N[C@@H](C)C(=O)N[C@@H]([C@@H](C)O)C(=O)N1)[C@@H](C)O)C(C)C)C(=O)N[C@@H](CC(C)C)C(=O)N1CCC[C@H]1C(=O)N1CCC[C@H]1C(=O)N[C@H](C(=O)N[C@@H](CC(N)=O)C(=O)N[C@H](C(=O)NCC(=O)N[C@@H](CO)C(=O)N[C@@H](Cc1c[nH]cn1)C(=O)N[C@H](C(=O)N[C@@H](Cc1ccc(O)cc1)C(N)=O)[C@@H](C)O)C(C)C)[C@@H](C)O [Example 98] ({C20 diacid-γGlu}-RCNTATCATQRLANFLVHSSNNFGPILPPTNVGSHTY-NH2; disulfide 2-7 (inferred); C-terminus assumed) |
| 0.088 nM | – | 2.7 h | 193 µM (≈ 815 µg/mL) | > 200 µM | > 200 µM | > 200 µM | > 200 µM | > 200 µM | > 200 µM | > 200 µM | > 200 µM | > 200 µM | – | – | 0.0735 nM | CC[C@H](C)[C@H](NC(=O)[C@@H]1CCCN1C(=O)CNC(=O)[C@H](Cc1ccccc1)NC(=O)[C@H](CC(N)=O)NC(=O)[C@H](CC(N)=O)NC(=O)[C@H](CO)NC(=O)[C@H](CO)NC(=O)[C@H](Cc1c[nH]cn1)NC(=O)[C@@H](NC(=O)[C@H](CC(C)C)NC(=O)[C@H](Cc1ccccc1)NC(=O)[C@H](CCC(=O)O)NC(=O)[C@H](C)NC(=O)[C@H](CC(C)C)NC(=O)[C@H](CCCNC(=N)N)NC(=O)[C@H](CCC(N)=O)NC(=O)[C@@H](NC(=O)[C@H](C)NC(=O)[C@@H]1CSSC[C@H](NC(=O)CC[C@H](NC(=O)CCCCCCCCCCCCCCCCCCC(=O)O)C(=O)O)C(=O)N[C@@H](CC(N)=O)C(=O)N[C@@H]([C@@H](C)O)C(=O)N[C@@H](C)C(=O)N[C@@H]([C@@H](C)O)C(=O)N1)[C@@H](C)O)C(C)C)C(=O)N[C@@H](CC(C)C)C(=O)N1CCC[C@H]1C(=O)N1CCC[C@H]1C(=O)N[C@H](C(=O)N[C@@H](CC(N)=O)C(=O)N[C@H](C(=O)NCC(=O)N[C@@H](CO)C(=O)N[C@@H](CC(N)=O)C(=O)N[C@H](C(=O)N1CCC[C@H]1C(N)=O)[C@@H](C)O)C(C)C)[C@@H](C)O [Example 108, N-alpha-[(S)-4-Carboxy-4-(19-carboxynonadecanoylamino)butyryl]-[des1,Glu14,Pro37]-pramlintide] ({C20 diacid-γGlu}-CNTATCATQRLAEFLVHSSNNFGPILPPTNVGSNTP-NH2; disulfide 1-6 (inferred)) |
| 0.107 nM | – | 23.6 h | > 200 µM | > 200 µM | > 200 µM | > 200 µM | > 200 µM | > 200 µM | > 200 µM | > 200 µM | > 200 µM | > 200 µM | – | – | 0.0585 nM | CC[C@H](C)[C@H](NC(=O)[C@@H]1CCCN1C(=O)CNC(=O)[C@H](Cc1ccccc1)NC(=O)[C@H](CC(N)=O)NC(=O)[C@H](CCC(N)=O)NC(=O)[C@H](CO)NC(=O)[C@H](CO)NC(=O)[C@H](Cc1c[nH]cn1)NC(=O)[C@@H](NC(=O)[C@H](CC(C)C)NC(=O)[C@H](Cc1ccccc1)NC(=O)[C@H](CCC(=O)O)NC(=O)[C@H](C)NC(=O)[C@H](CC(C)C)NC(=O)[C@H](CCCNC(=N)N)NC(=O)[C@H](CCC(N)=O)NC(=O)[C@@H](NC(=O)[C@H](C)NC(=O)[C@@H]1CSSC[C@H](NC(=O)[C@H](CCCCN)NC(=O)CC[C@H](NC(=O)CCCCCCCCCCCCCCCCCCC(=O)O)C(=O)O)C(=O)N[C@@H](CC(N)=O)C(=O)N[C@@H]([C@@H](C)O)C(=O)N[C@@H](C)C(=O)N[C@@H]([C@@H](C)O)C(=O)N1)[C@@H](C)O)C(C)C)C(=O)N[C@@H](CC(C)C)C(=O)N1CCC[C@H]1C(=O)N1CCC[C@H]1C(=O)N[C@H](C(=O)N[C@@H](CC(N)=O)C(=O)N[C@H](C(=O)NCC(=O)N[C@@H](CO)C(=O)N[C@@H](CCC(N)=O)C(=O)N[C@H](C(=O)N1CCC[C@H]1C(N)=O)[C@@H](C)O)C(C)C)[C@@H](C)O [Example 139, N-alpha-[(S)-4-Carboxy-4-(19-carboxynonadecanoylamino)butyryl]-[Glu14,Gln21,Gln35,Pro37]-pramlintide] ({C20 diacid-γGlu}-KCNTATCATQRLAEFLVHSSQNFGPILPPTNVGSQTP-NH2; disulfide 2-7 (inferred)) |

— patent US8722849B2, “Polypeptides” (Novo Nordisk A/S, priority 2011, dated 2014)
